Data on four molecules can be found in ChEMBL document CHEMBL1152001 (Bioorg Med Chem Lett, 1993).

Non-standard residues stand in square brackets, D forms with d. Residues, ends and D or L forms follow the SMILES beside them. pGlu = O=C1CC[C@@H](C(=O)O)N1

In the test the target is Substance-P receptor (Rattus norvegicus, UniProt P14600). Description: Tested for inhibition of tachykinin 1 (NK1) receptor in rat brain synaptosomal membranes using [125I]BH-SP as radioligand. In kind it is cell membranes, Membrane.
Substance-P receptor, sequence (P14600 whole entry): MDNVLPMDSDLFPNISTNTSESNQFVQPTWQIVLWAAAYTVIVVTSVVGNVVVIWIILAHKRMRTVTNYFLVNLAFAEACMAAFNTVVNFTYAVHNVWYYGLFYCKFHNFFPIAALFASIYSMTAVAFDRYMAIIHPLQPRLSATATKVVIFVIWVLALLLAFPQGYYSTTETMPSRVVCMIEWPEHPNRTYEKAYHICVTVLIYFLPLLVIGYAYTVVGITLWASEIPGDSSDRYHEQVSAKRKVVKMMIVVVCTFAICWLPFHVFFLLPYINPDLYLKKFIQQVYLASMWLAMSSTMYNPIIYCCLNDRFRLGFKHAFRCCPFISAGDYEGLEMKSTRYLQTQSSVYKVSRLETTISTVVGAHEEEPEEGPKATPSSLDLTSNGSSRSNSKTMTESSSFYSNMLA
Turning to `CSCC[C@H](NC(=O)[C@H](CC(C)C)NC(=O)CNC(=O)[C@H](Cc1ccc(O)cc1)NC(=O)[C@H](Cc1ccccc1)NC(=O)[C@H](CCCCN)NC(=O)[C@H](CC(N)=O)NC(=O)[C@@H]1CCCN1C(=O)[C@H](CC(=O)O)NC(=O)[C@H](C)NC(=O)[C@@H]1CCC(=O)N1)C(N)=O` ([pGlu]ADPNKFYGLM-NH2), the IC50 (usually the concentration needed to halve the response being measured) is 2.3 nM.

The molecule `CC[C@H](C)[C@H](NC(=O)[C@H](Cc1ccccc1)NC(=O)[C@H](C)NC(=O)[C@H](CC(=O)O)NC(=O)[C@H](CCCCN)NC(=O)[C@H](CO)NC(=O)[C@@H]1CCCN1C(=O)[C@@H]1CCC(=O)N1)C(=O)NCC(=O)N[C@@H](CC(C)C)C(=O)N[C@@H](CCSC)C(N)=O` ([pGlu]PSKDAFIGLM-NH2) showed an IC50 of 31 nM.

Turning to `CSCC[C@H](NC(=O)[C@H](CC(C)C)NC(=O)CNC(=O)[C@@H](NC(=O)[C@H](Cc1ccccc1)NC(=O)[C@H](CCC(N)=O)NC(=O)[C@H](CC(=O)O)NC(=O)[C@H](CO)NC(=O)[C@H](CCCCN)NC(=O)[C@@H]1CCCN1C(=O)[C@@H](NC(=O)[C@@H](N)CC(=O)O)C(C)C)C(C)C)C(N)=O` [KASSININ], the IC50 stood at 75 nM.

`CSCC[C@H](NC(=O)[C@H](CC(C)C)NC(=O)CNC(=O)[C@@H](NC(=O)[C@H](Cc1ccccc1)NC(=O)[C@H](Cc1ccccc1)NC(=O)[C@H](CC(=O)O)NC(=O)[C@H](Cc1c[nH]cn1)NC(=O)[C@H](CCSC)NC(=O)[C@@H](N)CC(=O)O)C(C)C)C(N)=O` [NEUROKININ B]: the IC50 amounted to 870 nM.
